The values that follow are results of earlier work, collected in US20210360928A1, “ANTIMICROBIAL/ANTIVIRAL NONWOVEN AND APPLICATIONS OF THE SAME” (priority 2020, published 2021).

Molecules are shown by their SMILES.

With `[Cl][Ag]` [silver chloride], the solubility in water entry was “unusually insoluble in water”.
